Measurements published in patent US5506252A, “Substituted N-heteroaryl and N-aryl-1,2-diaminocyclobutene-3,4-diones” (American Home Products Corporation, priority 1994, dated 1996).

tested on: Isolated Rat Bladder Strips; assay: Inhibition of contractions in isolated rat bladder strips (smooth muscle relaxing activity, KCl-enhanced contractions); type: cell-based, Sprague-Dawley rats; details: 0.5 h, 15 mM KCl added, 30 minute challenge, read-out: IC50 (concentration required to elicit 50% inhibition of pre-drug contractile activity)
Excerpt: The smooth muscle relaxing activity of the compounds of this invention was established in accordance with standard pharmaceutically accepted test procedures in representative compounds as follows:
Sprague-Dawley rats (150-200 g) are rendered unconscious by CO2 asphyxiation and then euthanized by cervical dislocation. The bladder is removed into warm (37 deg. C.) physiological salt solution (PSS) of the following composition (mM): NaCl, 118.4; KCl, 4.7; CaCl2, 2.5; […]; NaHCO3, 24.9; KH2 PO4, 1.2; glucose, 11.1; EDTA, 0.023; gassed with […]; pH 7.4. The bladder is opened and then cut into strips 1-2 mm in width and 7-10 mm in length. The strips are subsequently suspended in a 10 mL tissue bath under an initial resting tension of 1.5 g. The strips are held in place by two surgical clips one of which is attached to a fixed hook while the other is attached to an isometric force transducer. […] The carbachol is then washed out and the tissue allowed to relax to its resting level of activity. Following one further 30 minute period of recovery, an additional 15 mM KCl are introduced into the tissue bath. This increase in KCl concentration results in a large increase in the amplitude of spontaneous contractions (and initiation of contractions in previously quiescent strips) superimposed upon a small increase in basal tone. Following stabilization of this enhanced level of contractile activity, incremental increases in the concentration of test compound or vehicle are introduced into the tissue bath. Contractile activity is measured for each compound or vehicle concentration during the last minute of a 30 minute challenge.
The isometric force developed by the bladder strips is measured using a […] to elicit 50% inhibition of pre-drug contractile activity (IC50 concentration) is calculated from this concentration-response curve.

Row | Structure (SMILES) | IC50 [nM]
1 | COc1cc(C#N)ccc1Nc1c(N[C@H](C)C(C)(C)C)c(=O)c1=O [Example 25, (+)-(R)-4-[3,4-Dioxo-2-(1,2,2-trimethyl-propylamino)-cyclobut-1-enylamino]-3-methoxy-benzonitrile] | 290
2 | CC(C)(C)Nc1c(Nc2cccnc2)c(=O)c1=O [Example 7, 3-Tert-butylamino-4-(pyridin-3-ylamino)-cyclobut-3-ene-1,2-dione] | 2800
3 | CC(Nc1c(Nc2ccncc2)c(=O)c1=O)C(C)(C)C (stereo not shown) [Example 1, 3-(Pyridin-4-ylamino)-4-(1,2,2-trimethyl-propylamino)-cyclobut-3-ene-1,2-dione] | 1360
4 | CC(Nc1c(Nc2cccnc2)c(=O)c1=O)C(C)(C)C (stereo not shown) [Example 3, 3-(Pyridin-3-ylamino)-4-(1,2,2-trimethyl-propylamino)-cyclobut-3-ene-1,2-dione] | 1950
5 | CC(Nc1c(Nc2ccc(C#N)cc2)c(=O)c1=O)C(C)(C)C (stereo not shown) [Example 21, 4-[3,4-Dioxo-2-(1,2,2-trimethyl-propylamino)-cyclobut-1-enylamino]-benzonitrile] | 520
6 | CC(C)(C)Nc1c(Nc2ccc3cn[nH]c3c2)c(=O)c1=O [Example 19, 3-Tert-butylamino-4-(1H-indazol-6-ylamino)-cyclobut-3-ene-1,2-dione] | 6340
7 | CC(Nc1c(Nc2cccc3cccnc23)c(=O)c1=O)C(C)(C)C (stereo not shown) [Example 10, 3-(Quinolin-8-ylamino)-4-(1,2,2-trimethyl-propylamino)-cyclobut-3-ene-1,2-dione] | 8000
8 | CC(C)(C)Nc1c(Nc2cccc3cnccc23)c(=O)c1=O [Example 8, 3-Tert-butylamino-4-(isoquinolin-5-ylamino)-cyclobut-3-ene-1,2-dione] | 1840
9 | O=c1c(Nc2ccncc2)c(N[C@H]2C[C@@H]3CC[C@H]2C3)c1=O (relative stereo) [Example 2, (Exo)-3-(bicyclo[2.2.1]hept-2-ylamino)-4-(pyridin-4-ylamino)-cyclobut-3,-ene-1,2-dione] | 15800
10 | CCc1cc(C#N)ccc1Nc1c(N[C@H](C)C(C)(C)C)c(=O)c1=O [Example 24, (+)-(R )-4-[3,4-Dioxo-2-(1,2,2-trimethyl-propylamino)-cyclobut-1-enylamino]-3-ethyl-benzonitrile] | 21

same assay, conditions: 0.5 h, at 30 μM, 15 mM KCl added, 30 minute challenge, read-out: Inhibition of Force (%) at (x) μM

Row | Structure (SMILES) | inhibition at 30 µM [%]
11 | Nc1c(Nc2cccnc2)c(=O)c1=O [Example 6] | 31
12 | Nc1c(Nc2cccc3cnccc23)c(=O)c1=O [Example 9, 3-Amino-4-(isoquinolin-5-ylamino)-cyclobut-3-ene-1,2-dione] | 43
13 | CC(C)(C)Nc1c(Nc2cnc3ccccc3c2)c(=O)c1=O [Example 14, 3-Tert-butylamino-4-(quinolin-3-ylamino)-cyclobut-3-ene-1,2-dione] | 51
